Format in all cases: cell-based
In assay [1] the test system is Panc03.27 (pancreatic) cells. In words: Transwell cell migration assay, Panc03.27. The settings on record: Homo sapiens, PANC-03-27; Panc 03.27, Pancreatic. From the text: (§1) A375 (melanoma) (CRL-1619, ATCC, Manassas, Va., USA), A431 (melanoma) (CRL-2592, ATCC, Manassas, Va., USA), A2058 (melanoma) (CRL-11147, ATCC, Manassas, Va., USA), MDA-MB-231 (breast) (HTB-26, ATCC, Manassas, Va., USA), LS175T (colon) (ATCC, Manassas, Va., USA), HT29 (colon) (HTB-38, ATCC, Manassas, Va., USA), PC3 (prostate) (CRL-1435, ATCC, Manassas, Va., USA), Panc03.27 (pancreatic) (ATCC, Manassas, Va., USA), 4T1 (breast-mouse) (CRL-2539, ATCC, Manassas. Va., USA), D122 (lung-mouse) (the Weizmann Institute of Science), D122-luc (lung-mouse) (the Weizmann Institute of Science), and B16 F10.9 (melanoma-mouse) cells (Caliper Life Sciences, Hopkinton Mass.), were grown in RPMI medium supplemented with 10% FBS. HUVEC cells were grown in Endothelial Cell Growth Medium 2 and THP1 cells were grown in RPMI medium supplemented with 10% FBS, 2 mM L-Glutamine, 1.5 g/L sodium bicarbonate, 10 mM Hepes, 1 mM sodium pyruvate, 4.5 g/L glucose and 0.05 mM 2-mercaptoethanol. The cells were starved for 24 hours in medium without FBS. […] Cells that migrated to the lower side of the membrane were stained with Calcein-AM (Sigma) and images were taken with a fluorescence microscope. The number of migrating cells was quantified by ImageJ software and the IC50 values were calculated using Prism software (Graphpad).

The test system of assay [2] is D122-luc (lung-mouse) cells. Kind of assay: Transwell cell migration assay, D122-luc.
From the text: as §1

A further assay deals with HUVEC cells. In words: Transwell cell migration assay, HUVEC. The note with it: Homo sapiens, Endothelial.
From the text: as §1

Assay [3] deals with DU145 prostate cancer cell line. Kind of assay: Transwell cell migration assay, DU 145 prostate cancer cell line. The note with it: DU145, 12.5 μM, 24 h, 8 μm pore (FIG. 2). On the procedure:
(§2) MDA-MB-231 (HTB-26, ATCC, Manassas, Va., USA) and MDA-MB-468 (HTB-132, ATCC, Manassas, Va., USA) breast cancer cell lines and DU 145 (HTB-81, ATCC, Manassas, Va., USA) prostate cancer cell line grown in RPMI medium supplement with 10% FBS were starved for 24 hours in medium without FBS. After 24 hours, 5×10^4 cells in FBS free medium were placed in the upper chamber of 24-well Transwell apparatus (CORNING TRANSWELL® polycarbonate membrane inserts, 8 μm pore size) with solvent (DMSO/PEG400) or 12.5 μM Compound 1 as indicated. Medium with FBS and Compound 1 was added to the bottom chamber. Twenty-four hours later the cells from the upper chamber were removed with a cotton swab. Cells that migrated to the lower side of the membrane were stained with Calcein-AM (Sigma) and images were taken with a fluorescence microscope.

The test system of the next assay is LS175T (colon) cells. Kind of assay: Transwell cell migration assay, LS175T.
From the text: as §1

In assay [4] the test system is MDA-MB-468 breast cancer cells. Kind of assay: Transwell cell migration assay, MDA-MB-468 breast cancer cells. The settings on record: MDA-MB-468, 12.5 μM, 24 h, 8 μm pore (FIG. 2). The method, then:
as §2

For a further assay, the system named is D122 (lung-mouse) cells. In words: Transwell cell migration assay, D122.
From the text: as §1

Another assay has as its system A431 (melanoma) cells. In words: Transwell cell migration assay, A431. The note with it: Homo sapiens, A-431.
From the text: as §1

Another assay has as its system HT29 (colon) cells. Kind of assay: Transwell cell migration assay, HT29. The note with it: Homo sapiens, HT-29.
From the text: as §1

For `Cc1cc(C)nc(NS(=O)(=O)c2ccc(NC(=O)/C(=C\c3cccs3)NC(=O)c3cccs3)cc2)n1` [Compound 1], the IC50 (commonly the concentration that inhibits the measured activity by half) came to 1 µM in [1]; 1.6 µM in assay [2]; 2.9 µM with HUVEC cells; 1 µM in the assay with LS175T (colon) cells; 1.4 µM with D122 (lung-mouse) cells; 1.1 µM in the assay on A431 (melanoma) cells. This molecule came in with an IC50 in the assay with HT29 (colon) cells of 1.5 µM. Moreover, the “cell migration (Transwell, images)” value in assay [3] and in assay [4] was “inhibits the migration” each time.

These data come from US20110130374A1, “Small Pyrimidine Derivatives and Methods of Use Thereof” (BIOSEARCH(2007) LTD., priority 2009, published 2011).
